The values below come from ChEMBL document CHEMBL3991601, “The target landscape of clinical kinase drugs” (Science, 2017).

Assay [1] concerns the target Aurora kinase B (Homo sapiens, UniProt Q96GD4).
The target of assay [2] is T1, Breakpoint cluster region protein (Homo sapiens, UniProt P11274).
T1 sequence (P11274 whole entry): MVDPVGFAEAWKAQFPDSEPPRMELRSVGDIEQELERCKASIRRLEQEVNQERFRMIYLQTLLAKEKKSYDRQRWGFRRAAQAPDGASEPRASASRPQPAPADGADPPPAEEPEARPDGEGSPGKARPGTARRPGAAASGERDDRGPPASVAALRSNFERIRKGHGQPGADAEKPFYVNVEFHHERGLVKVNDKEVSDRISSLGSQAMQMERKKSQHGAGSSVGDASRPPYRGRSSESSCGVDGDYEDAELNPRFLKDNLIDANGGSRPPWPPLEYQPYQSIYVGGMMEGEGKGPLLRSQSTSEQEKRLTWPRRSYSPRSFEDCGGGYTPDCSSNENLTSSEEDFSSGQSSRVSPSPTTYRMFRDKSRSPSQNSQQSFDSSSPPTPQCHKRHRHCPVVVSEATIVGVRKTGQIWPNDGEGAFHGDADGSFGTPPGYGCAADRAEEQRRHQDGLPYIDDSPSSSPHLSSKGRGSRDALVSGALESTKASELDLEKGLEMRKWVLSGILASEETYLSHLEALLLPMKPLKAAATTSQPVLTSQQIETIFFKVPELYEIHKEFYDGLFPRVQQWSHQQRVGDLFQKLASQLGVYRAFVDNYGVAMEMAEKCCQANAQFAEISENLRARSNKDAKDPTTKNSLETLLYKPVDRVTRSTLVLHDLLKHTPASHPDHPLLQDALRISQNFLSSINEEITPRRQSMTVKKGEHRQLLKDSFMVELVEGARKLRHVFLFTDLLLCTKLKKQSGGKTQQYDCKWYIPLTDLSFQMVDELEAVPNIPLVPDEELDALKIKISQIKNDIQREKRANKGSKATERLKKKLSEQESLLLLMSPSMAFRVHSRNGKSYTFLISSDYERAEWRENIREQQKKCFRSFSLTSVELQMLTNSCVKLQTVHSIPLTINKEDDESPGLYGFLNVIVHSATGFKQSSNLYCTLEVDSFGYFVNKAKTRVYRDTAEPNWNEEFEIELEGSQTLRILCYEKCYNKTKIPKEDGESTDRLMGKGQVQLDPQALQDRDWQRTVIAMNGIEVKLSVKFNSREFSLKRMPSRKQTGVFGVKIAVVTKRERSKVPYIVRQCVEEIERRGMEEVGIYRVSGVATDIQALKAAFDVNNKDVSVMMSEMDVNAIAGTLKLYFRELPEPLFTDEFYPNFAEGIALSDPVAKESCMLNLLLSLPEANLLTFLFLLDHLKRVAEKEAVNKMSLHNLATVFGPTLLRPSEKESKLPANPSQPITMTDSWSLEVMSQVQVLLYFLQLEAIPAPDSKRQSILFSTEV

The target in assay [3] is Cyclin-dependent kinase 12 (Homo sapiens, UniProt Q9NYV4).
Assay [4] addresses Casein kinase I isoform delta (Homo sapiens, UniProt P48730).
Assay [5] has as its target T2, Mitogen-activated protein kinase kinase kinase 2 (Homo sapiens, UniProt Q9Y2U5).
T2 sequence (Q9Y2U5 whole entry): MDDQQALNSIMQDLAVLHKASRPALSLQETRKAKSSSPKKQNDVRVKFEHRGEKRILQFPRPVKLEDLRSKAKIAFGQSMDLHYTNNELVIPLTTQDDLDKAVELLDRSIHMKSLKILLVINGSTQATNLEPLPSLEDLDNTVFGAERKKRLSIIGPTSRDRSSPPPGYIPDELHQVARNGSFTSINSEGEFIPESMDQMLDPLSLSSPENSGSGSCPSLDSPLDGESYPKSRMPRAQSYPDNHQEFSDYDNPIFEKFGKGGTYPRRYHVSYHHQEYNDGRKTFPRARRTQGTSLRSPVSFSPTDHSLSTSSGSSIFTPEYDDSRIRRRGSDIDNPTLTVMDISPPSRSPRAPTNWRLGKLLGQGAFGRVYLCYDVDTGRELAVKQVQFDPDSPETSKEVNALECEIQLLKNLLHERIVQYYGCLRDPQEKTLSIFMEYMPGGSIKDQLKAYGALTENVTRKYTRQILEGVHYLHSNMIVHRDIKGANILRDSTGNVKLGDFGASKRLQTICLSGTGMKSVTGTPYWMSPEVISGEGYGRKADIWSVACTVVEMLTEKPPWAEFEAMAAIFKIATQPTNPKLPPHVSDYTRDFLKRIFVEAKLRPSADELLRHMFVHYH

The target of assay [6] is T3, Phosphatidylinositol 5-phosphate 4-kinase type-2 alpha (Homo sapiens, UniProt P48426).
T3 sequence (P48426 whole entry): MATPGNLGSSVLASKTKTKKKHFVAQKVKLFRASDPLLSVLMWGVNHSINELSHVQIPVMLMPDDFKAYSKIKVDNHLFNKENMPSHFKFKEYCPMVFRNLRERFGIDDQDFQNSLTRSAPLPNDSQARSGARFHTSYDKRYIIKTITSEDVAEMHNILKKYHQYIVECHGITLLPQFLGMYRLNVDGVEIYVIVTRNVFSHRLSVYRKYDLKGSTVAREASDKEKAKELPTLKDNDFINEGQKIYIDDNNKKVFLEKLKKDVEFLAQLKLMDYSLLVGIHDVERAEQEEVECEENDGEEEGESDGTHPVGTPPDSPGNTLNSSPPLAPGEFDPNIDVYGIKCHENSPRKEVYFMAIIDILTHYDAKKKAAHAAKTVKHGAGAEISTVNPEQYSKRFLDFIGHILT

Assay [7] has as its target Insulin receptor (Homo sapiens, UniProt P06213).
Assay [8] addresses Serine/threonine-protein kinase PAK 2 (Homo sapiens, UniProt Q13177).

Active and inactive are the calls of the source. Cut-off read from the data, not from the text of the source, for most assays here: actives have a measured Kd and inactives only a lower limit.
Note: in the data inactive means no Kd found up to 30 µM.

Casein kinase I isoform delta, sequence (P48730 whole entry, canonical isoform): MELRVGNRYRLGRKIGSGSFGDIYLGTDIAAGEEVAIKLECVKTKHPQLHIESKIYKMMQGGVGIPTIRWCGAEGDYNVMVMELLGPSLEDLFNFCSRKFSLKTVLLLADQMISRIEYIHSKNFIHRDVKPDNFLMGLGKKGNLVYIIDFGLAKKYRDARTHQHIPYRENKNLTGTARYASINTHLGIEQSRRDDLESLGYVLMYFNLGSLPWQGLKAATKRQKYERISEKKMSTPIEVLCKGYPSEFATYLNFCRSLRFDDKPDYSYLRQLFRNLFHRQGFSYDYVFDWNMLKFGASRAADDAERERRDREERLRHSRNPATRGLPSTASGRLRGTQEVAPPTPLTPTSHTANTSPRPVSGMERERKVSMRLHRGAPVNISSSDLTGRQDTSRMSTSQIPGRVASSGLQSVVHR
Insulin receptor, sequence (P06213 28-758 limits assumed): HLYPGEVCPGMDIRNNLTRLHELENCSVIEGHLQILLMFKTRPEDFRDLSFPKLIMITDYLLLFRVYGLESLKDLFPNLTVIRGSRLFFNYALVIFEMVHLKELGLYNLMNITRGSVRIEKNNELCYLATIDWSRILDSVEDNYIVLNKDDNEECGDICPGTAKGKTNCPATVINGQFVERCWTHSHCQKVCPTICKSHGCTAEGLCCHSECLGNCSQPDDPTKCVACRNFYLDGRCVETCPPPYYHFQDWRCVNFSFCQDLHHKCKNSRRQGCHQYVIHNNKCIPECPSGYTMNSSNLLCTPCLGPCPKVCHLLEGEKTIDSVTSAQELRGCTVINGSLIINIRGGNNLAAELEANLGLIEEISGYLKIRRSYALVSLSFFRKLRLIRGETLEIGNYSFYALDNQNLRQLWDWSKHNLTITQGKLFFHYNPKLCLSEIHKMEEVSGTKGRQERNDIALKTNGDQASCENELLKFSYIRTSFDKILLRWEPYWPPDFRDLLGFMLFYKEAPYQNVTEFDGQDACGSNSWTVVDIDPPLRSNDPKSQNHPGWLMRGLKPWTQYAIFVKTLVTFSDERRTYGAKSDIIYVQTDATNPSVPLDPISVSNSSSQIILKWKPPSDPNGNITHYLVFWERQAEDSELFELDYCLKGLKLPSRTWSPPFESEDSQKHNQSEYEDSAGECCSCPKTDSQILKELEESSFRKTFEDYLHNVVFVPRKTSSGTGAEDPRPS
Insulin receptor, sequence (P06213 763-1382 limits assumed): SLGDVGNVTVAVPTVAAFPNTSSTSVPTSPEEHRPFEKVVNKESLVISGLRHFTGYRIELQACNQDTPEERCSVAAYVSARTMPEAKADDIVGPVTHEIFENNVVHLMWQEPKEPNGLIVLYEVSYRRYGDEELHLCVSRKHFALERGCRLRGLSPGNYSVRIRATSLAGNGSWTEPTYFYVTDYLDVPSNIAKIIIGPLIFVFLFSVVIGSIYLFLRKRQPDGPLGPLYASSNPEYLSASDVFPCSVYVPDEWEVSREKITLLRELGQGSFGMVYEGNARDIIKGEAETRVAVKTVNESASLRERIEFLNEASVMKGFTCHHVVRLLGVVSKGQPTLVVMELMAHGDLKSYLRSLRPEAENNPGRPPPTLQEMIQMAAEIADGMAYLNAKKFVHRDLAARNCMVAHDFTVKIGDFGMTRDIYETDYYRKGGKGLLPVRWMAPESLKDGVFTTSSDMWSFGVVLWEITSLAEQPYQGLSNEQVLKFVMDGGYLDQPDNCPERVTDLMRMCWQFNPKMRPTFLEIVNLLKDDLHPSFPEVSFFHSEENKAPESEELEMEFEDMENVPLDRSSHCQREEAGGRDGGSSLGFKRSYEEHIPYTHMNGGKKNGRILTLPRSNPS
Aurora kinase B, sequence (Q96GD4 whole entry): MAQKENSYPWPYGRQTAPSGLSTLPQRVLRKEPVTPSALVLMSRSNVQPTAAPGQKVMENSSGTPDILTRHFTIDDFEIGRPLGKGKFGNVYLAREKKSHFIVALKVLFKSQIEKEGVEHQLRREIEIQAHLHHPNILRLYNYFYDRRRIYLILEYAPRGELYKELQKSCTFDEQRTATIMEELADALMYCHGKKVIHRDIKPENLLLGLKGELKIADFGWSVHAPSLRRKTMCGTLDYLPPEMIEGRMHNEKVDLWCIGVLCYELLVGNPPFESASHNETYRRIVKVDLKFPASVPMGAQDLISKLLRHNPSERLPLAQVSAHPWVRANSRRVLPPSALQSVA
Serine/threonine-protein kinase PAK 2, sequence (Q13177 whole entry): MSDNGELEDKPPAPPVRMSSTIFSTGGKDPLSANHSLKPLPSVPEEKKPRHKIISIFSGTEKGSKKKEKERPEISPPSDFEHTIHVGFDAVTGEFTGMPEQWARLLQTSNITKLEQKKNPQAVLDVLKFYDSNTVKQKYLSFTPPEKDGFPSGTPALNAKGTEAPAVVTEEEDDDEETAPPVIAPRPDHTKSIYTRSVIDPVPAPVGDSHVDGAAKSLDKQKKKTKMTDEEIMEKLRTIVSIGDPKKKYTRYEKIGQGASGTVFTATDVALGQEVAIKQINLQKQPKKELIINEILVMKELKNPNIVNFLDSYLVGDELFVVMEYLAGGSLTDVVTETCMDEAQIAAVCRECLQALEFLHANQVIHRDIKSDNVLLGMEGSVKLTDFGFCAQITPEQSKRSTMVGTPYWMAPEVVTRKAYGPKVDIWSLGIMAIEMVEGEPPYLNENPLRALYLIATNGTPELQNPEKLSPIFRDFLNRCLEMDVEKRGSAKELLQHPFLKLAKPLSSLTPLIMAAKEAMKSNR
Cyclin-dependent kinase 12, sequence (Q9NYV4 whole entry, canonical isoform): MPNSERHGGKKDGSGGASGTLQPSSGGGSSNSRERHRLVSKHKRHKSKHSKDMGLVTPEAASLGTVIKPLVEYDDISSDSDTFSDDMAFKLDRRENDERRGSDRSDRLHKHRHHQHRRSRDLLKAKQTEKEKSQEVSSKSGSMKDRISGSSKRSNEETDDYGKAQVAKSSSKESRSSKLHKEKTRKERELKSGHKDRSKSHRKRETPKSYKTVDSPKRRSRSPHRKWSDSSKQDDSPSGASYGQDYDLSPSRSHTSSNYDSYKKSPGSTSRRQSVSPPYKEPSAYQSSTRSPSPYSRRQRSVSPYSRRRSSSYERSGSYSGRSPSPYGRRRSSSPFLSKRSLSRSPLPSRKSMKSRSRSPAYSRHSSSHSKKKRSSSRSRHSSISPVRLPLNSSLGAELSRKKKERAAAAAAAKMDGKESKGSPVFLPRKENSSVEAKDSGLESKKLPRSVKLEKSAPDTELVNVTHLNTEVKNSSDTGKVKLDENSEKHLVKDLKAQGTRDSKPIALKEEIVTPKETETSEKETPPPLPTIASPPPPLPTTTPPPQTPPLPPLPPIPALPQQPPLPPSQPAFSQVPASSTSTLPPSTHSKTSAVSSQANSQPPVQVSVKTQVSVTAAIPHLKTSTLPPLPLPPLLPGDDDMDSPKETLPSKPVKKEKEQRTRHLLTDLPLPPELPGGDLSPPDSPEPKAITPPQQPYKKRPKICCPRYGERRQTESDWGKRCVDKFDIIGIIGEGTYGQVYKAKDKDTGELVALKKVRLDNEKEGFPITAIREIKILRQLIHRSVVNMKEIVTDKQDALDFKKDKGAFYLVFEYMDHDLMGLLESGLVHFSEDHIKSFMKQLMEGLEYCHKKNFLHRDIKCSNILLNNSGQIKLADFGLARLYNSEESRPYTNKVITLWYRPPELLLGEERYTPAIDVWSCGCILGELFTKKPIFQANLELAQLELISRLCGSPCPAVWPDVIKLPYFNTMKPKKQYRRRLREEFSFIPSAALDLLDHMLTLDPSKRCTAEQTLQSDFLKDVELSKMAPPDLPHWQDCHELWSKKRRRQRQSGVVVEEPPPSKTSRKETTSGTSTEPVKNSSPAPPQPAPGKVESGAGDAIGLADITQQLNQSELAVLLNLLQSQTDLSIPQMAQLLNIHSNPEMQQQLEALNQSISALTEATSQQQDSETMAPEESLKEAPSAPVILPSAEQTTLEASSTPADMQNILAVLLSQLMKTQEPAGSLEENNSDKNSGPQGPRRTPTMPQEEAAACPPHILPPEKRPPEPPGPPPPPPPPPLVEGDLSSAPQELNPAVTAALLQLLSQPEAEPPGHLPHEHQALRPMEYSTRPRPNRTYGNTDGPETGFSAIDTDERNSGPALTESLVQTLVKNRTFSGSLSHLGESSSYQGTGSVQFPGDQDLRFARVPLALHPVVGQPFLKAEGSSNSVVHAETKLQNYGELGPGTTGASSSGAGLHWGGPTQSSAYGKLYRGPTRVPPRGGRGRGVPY

Take `CCc1nc(C(N)=O)c(Nc2ccc(N3CCC(N4CCN(C)CC4)CC3)c(OC)c2)nc1NC1CCOCC1` [GILTERITINIB]: the Kd in assay [1] was > 30 µM (inactive); in assay [2], > 30 µM (inactive); in assay [3] it was > 30 µM (inactive); in assay [4] it was > 30 µM (inactive); in assay [5] it was 0.536 µM (active); in assay [6] it was > 30 µM (inactive).
On to `C=CCn1c(=O)c2cnc(Nc3ccc(N4CCN(C)CC4)cc3)nc2n1-c1cccc(C(C)(C)O)n1` [ADAVOSERTIB], for which the Kd in assay [2] is 1.91 µM (active); in assay [3], > 30 µM (inactive); in assay [4] it was > 30 µM (inactive); in assay [7], > 30 µM (inactive); in assay [5], > 30 µM (inactive); in assay [8], > 30 µM (inactive).
As to `FC(F)(F)c1ccc(CNc2ccc(Cc3c[nH]c4ncc(Cl)cc34)cn2)cn1` [PEXIDARTINIB], the Kd in assay [1], in assay [2], in assay [3], in assay [4], in assay [7] and in assay [5] was > 30 µM (inactive) throughout. Besides, the Kd in assay [6] is > 30 µM (inactive).
For the compound `CC1(C)CNc2cc(NC(=O)c3cccnc3NCc3ccncc3)ccc21` [MOTESANIB], the Kd in assay [2], in assay [3] and in assay [6] was > 30 µM (inactive) throughout.
Take `COc1cc2c(N3CCN(C(=O)Nc4ccc(OC(C)C)cc4)CC3)ncnc2cc1OCCCN1CCCCC1` [TANDUTINIB]: the Kd in assay [3] and in assay [6] was > 30 µM (inactive) throughout.
Consider `O=S(=O)(c1cccc2cnccc12)N1CCCNCC1` [FASUDIL], for which the Kd was > 30 µM (inactive) in assay [2]; 3.48 µM (active) in assay [3]; > 30 µM (inactive) in assay [5]; > 30 µM (inactive) in assay [8]; > 30 µM (inactive) in assay [6].
For `NC(=O)c1ccc(N(C(N)=O)c2c(F)cccc2F)nc1-c1ccc(F)cc1F` [VX-702], the Kd in assay [1], in assay [2], in assay [3], in assay [4], in assay [7] and in assay [5] was > 30 µM (inactive) throughout. Further, the Kd in assay [6] was > 30 µM (inactive).
As for `O=C(Nc1ccc(OC(F)(F)F)cc1)c1sccc1NCc1ccnc2ccccc12` [OSI-930], the Kd in assay [1], in assay [2], in assay [3], in assay [4], in assay [7] and in assay [5] was > 30 µM (inactive) throughout. In addition, in assay [6], the Kd is > 30 µM (inactive).
Turning to `O=C(O)c1ccc2c(c1)nc(Nc1cccc(Cl)c1)c1ccncc12` [SILMITASERTIB], the Kd in assay [2], in assay [3], in assay [4], in assay [7], in assay [5] and in assay [8] was > 30 µM (inactive) each time.
With `CCN(CCCOc1ccc2c(Nc3cc(CC(=O)Nc4cccc(F)c4)n[nH]3)ncnc2c1)CCOP(=O)(O)O` [BARASERTIB], the Kd in assay [2], in assay [3], in assay [4], in assay [7], in assay [5] and in assay [8] was > 30 µM (inactive) throughout. In assay [6], the Kd was > 30 µM (inactive).
Consider `CN(C)C/C=C/C(=O)Nc1cc2c(Nc3ccc(F)c(Cl)c3)ncnc2cc1O[C@H]1CCOC1` [AFATINIB], for which the Kd in assay [2], in assay [3] and in assay [6] was > 30 µM (inactive) throughout.
As for `Cn1cnc2c(F)c(Nc3ccc(Br)cc3Cl)c(C(=O)NOCCO)cc21` [SELUMETINIB], the Kd in assay [2], in assay [3] and in assay [6] was > 30 µM (inactive) in each case.
On to `Cc1c(Cn2c(C)nc3c(C(=O)O)cc(N4CCOCC4)cc32)cccc1C(F)(F)F` [GSK-2636771], for which the Kd in assay [1], in assay [2], in assay [3], in assay [4], in assay [7] and in assay [5] was > 30 µM (inactive) in each case. The Kd in assay [6] was > 30 µM (inactive).
Regarding `Cn1c(=O)n(-c2ccc(C(C)(C)C#N)cc2)c2c3cc(-c4cnc5ccccc5c4)ccc3ncc21` [DACTOLISIB], the Kd in assay [2], in assay [3], in assay [4], in assay [7], in assay [5] and in assay [8] was > 30 µM (inactive) in each case. For the same compound, the Kd in assay [6] is > 30 µM (inactive).
For the compound `Cc1c(NC(=O)OC[C@@H]2COCCN2)cn2ncnc(Nc3ccc4c(cnn4Cc4cccc(F)c4)c3)c12` [AC-480], the Kd in assay [1], in assay [2], in assay [3], in assay [4], in assay [7] and in assay [5] was > 30 µM (inactive) in each case.
Regarding `COc1cc2c(Oc3ccc4[nH]c(C)cc4c3F)ncnc2cc1OCCCN1CCCC1` [CEDIRANIB], the Kd in assay [2] is 2.31 µM (active); in assay [3], > 30 µM (inactive); in assay [6], > 30 µM (inactive).
`C[C@]1(O)C[C@@H](c2nc(-c3ccc4ccc(-c5ccccc5)nc4c3)c3c(N)nccn32)C1` [LINSITINIB]: the Kd in assay [2], in assay [3], in assay [5] and in assay [6] was > 30 µM (inactive) in each case.
With `C[C@@]1(C(=O)Nc2ccc(F)nc2)CCCN1c1nc(Nc2cc(C3CC3)n[nH]2)c2cccn2n1` [BMS-754807], the Kd in assay [2], in assay [3] and in assay [6] was > 30 µM (inactive) in each case.
`COc1cc2ncnc(Nc3ccc(F)c(Cl)c3)c2cc1NC(=O)/C=C/CN1CCCCC1` [DACOMITINIB ANHYDROUS]: the Kd in assay [1], in assay [2], in assay [3], in assay [4], in assay [7] and in assay [5] was > 30 µM (inactive) throughout. The Kd in assay [6] was > 30 µM (inactive).

Usually Kd stands for a measure of binding affinity in units of concentration.
